Earlier results, collected in patent publication US20140171372A1, “Treatments for Alzheimer's disease” (priority 2012, published 2014).

Legend:
[1] = treatment of spinal injury, Parkinson disease and AD
[2] = radiolabeled, injected systemically into animals
AD patients = conditions: intracerebroventricular injection, limited number of AD patients

Compound | neuroprotective effect in animal models (animal models) | neuroprotective effect in cultured cells (cultured cells) | protective effects relative to GM1 (cultured cells; cultured cells and animal models, compared with GM1) | tolerability in Human [1] | distribution after systemic injection [2] | clinical improvement in AD patients (AD patients) | outcome of clinical trial in AD (patients)
CCCCCCCCCCCCC/C=C/C(O)C(COC1OC(CO)C(OC2OC(CO)C(OC3OC(CO)C(O)C(OC4OC(CO)C(O)C(O)C4O)C3NC(C)=O)C(OC3(C(=O)O)CC(O)C(NC(C)=O)C(C(O)C(O)CO)O3)C2O)C(O)C1O)NC(=O)C(Cl)Cl (stereo not drawn) [LIGA20] | neuroprotective | neuroprotective | more potent protective effects than GM1 | – | – | – | –
GM1 | neuroprotective | neuroprotective | – | well tolerated | reach neuronal synapses and neuromuscular junctions | some degree of improvement | –
Solanezumab | – | – | – | – | – | – | failed
